Where two headings read alike, the source gives them in different places.
How the values were obtained:
Format in all cases: cell-based
[1] = tested on: all 50 cell lines; assay: CellTiter-Glo Viability Assay, average across all cell lines; details: Homo sapiens; across all 50 cell lines; read-out: average EC50 for inhibition of cancer cell proliferation
Outline: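 Cells were plated at 300-3,000 per well in their own media, then treated with compound in duplicate, with DMSO wells as controls. After four days at 37° C and 5% CO2, CellTiter-Glo was added, and luminescence was read. EC50s were fitted.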

[2] = tested on: DU4475; assay: CellTiter-Glo Viability Assay, breast cancer; details: Homo sapiens, DU-4475, 96 h; DU4475, breast cancer, four days; read-out: EC50
[3] = tested on: ZR-75-1; assay: CellTiter-Glo Viability Assay, breast cancer; details: Homo sapiens, 96 h; ZR-75-1, breast cancer, four days; read-out: EC50
[4] = tested on: BT-549; assay: CellTiter-Glo Viability Assay, breast cancer; details: Homo sapiens, 96 h; BT-549, breast cancer, four days; read-out: EC50
[5] = tested on: T47D; assay: CellTiter-Glo Viability Assay, breast cancer; details: Homo sapiens, 96 h, breast cancer, four days, read-out: EC50
[6] = tested on: HCC1599; assay: CellTiter-Glo Viability Assay, breast cancer; details: Homo sapiens, 96 h; HCC1599, breast cancer, four days; read-out: EC50
[7] = tested on: MCF7; assay: CellTiter-Glo Viability Assay, breast cancer; details: Homo sapiens, 96 h; MCF7, breast cancer, four days; read-out: EC50
[8] = tested on: MDA-MB-231-Luc; assay: CellTiter-Glo Viability Assay, breast cancer; details: Homo sapiens, 96 h; MDA-MB-231-Luc, breast cancer, four days; read-out: EC50
[9] = tested on: CAMA1; assay: CellTiter-Glo Viability Assay, breast cancer; details: Homo sapiens, CAMA-1, 96 h; CAMA1, breast cancer, four days; read-out: EC50
[10] = tested on: prostate cancer (5 cell lines); assay: CellTiter-Glo Viability Assay, prostate cancer; details: Homo sapiens
[11] = tested on: lung cancer (4 cell lines); assay: CellTiter-Glo Viability Assay, lung cancer; details: Homo sapiens, inhibition of cancer cell proliferation
[12] = tested on: ovarian cancer (4 cell lines); assay: CellTiter-Glo Viability Assay, ovarian cancer; details: Homo sapiens, inhibition of cancer cell proliferation
[13] = tested on: haematopoietic & lymphoid tumors (13 cell lines); assay: CellTiter-Glo Viability Assay, haematopoietic & lymphoid tumors; details: Homo sapiens, inhibition of cancer cell proliferation
[14] = tested on: colorectal cancer (6 cell lines); assay: CellTiter-Glo Viability Assay, colorectal cancer; details: Homo sapiens, inhibition of cancer cell proliferation
[15] = tested on: liver cancer (3 cell lines); assay: CellTiter-Glo Viability Assay, liver cancer; details: Homo sapiens, inhibition of cancer cell proliferation
[16] = tested on: pancreatic cancer (8 cell lines); assay: CellTiter-Glo Viability Assay, pancreatic cancer; details: Homo sapiens, inhibition of cancer cell proliferation
[17] = DU-145, read-out: Prostate cancer EC50 Du-145
[18] = PC-3, PC3 cell line, inhibition of cancer cell proliferation, read-out: Prostate cancer EC50 PC3
[19] = 22Rv1 cell line, inhibition of cancer cell proliferation, read-out: Prostate cancer EC50 22Rv1
[20] = LNCap clone FGC cell line, inhibition of cancer cell proliferation, read-out: Prostate cancer EC50 LNCap clone FGC
[21] = VCaP (Sigma) cell line, inhibition of cancer cell proliferation, read-out: Prostate cancer EC50 VCaP (Sigma)
[22] = A-427, A427 cell line, read-out: Lung cancer, EC50 (μM) A427
[23] = HCC78, HCC-78 cell line, read-out: Lung cancer, EC50 (μM) HCC-78
[24] = NCI-H460 cell line, read-out: Lung cancer, EC50 (μM) NCI-H460
[25] = NCI-H522 cell line, read-out: Lung cancer, EC50 (μM) NCI-H522
[26] = PA-1, PA1 cell line, read-out: Ovarian cancer, EC50 (μM) PA1
[27] = TOV112D, TOV-112D cell line, read-out: Ovarian cancer, EC50 (μM) TOV-112D
[28] = OV-90 cell line, read-out: Ovarian cancer, EC50 (μM) OV-90
[29] = OVCAR-3 cell line, read-out: Ovarian cancer, EC50 (μM) OVCAR-3
[30] = DND41, DND-41 cell line, read-out: Haematopoietic & Lymphoid tumors, EC50 (μM) DND-41
[31] = MV4-11, MV-4-11 cell line, read-out: Haematopoietic & Lymphoid tumors, EC50 (μM) MV-4-11
[32] = Rec1, REC-1 cell line, read-out: Haematopoietic & Lymphoid tumors, EC50 (μM) REC-1
[33] = SU-DHL-4, SUDHL4 cell line, read-out: Haematopoietic & Lymphoid tumors, EC50 (μM) SUDHL4
[34] = HL-60 cell line, read-out: Haematopoietic & Lymphoid tumors, EC50 (μM) HL-60
[35] = JM1 cell line, read-out: Haematopoietic & Lymphoid tumors, EC50 (μM) JM1
[36] = JURKAT, Clone E6-1 cell line, read-out: Haematopoietic & Lymphoid tumors, EC50 (μM) JURKAT, Clone E6-1
[37] = JeKo-1 cell line, read-out: Haematopoietic & Lymphoid tumors, EC50 (μM) JeKo-1
[38] = KASUMI-1 cell line, read-out: Haematopoietic & Lymphoid tumors, EC50 (μM) KASUMI-1
[39] = Loucy cell line, read-out: Haematopoietic & Lymphoid tumors, EC50 (μM) Loucy
[40] = MOLT-4 cell line, read-out: Haematopoietic & Lymphoid tumors, EC50 (μM) MOLT-4
[41] = TF-1 cell line, read-out: Haematopoietic & Lymphoid tumors, EC50 (μM) TF-1
[42] = TOLEDO cell line, read-out: Haematopoietic & Lymphoid tumors, EC50 (μM) TOLEDO
[43] = HCT-116, HCT116 cell line, read-out: Colorectal cancer, EC50 (μM) HCT116
[44] = HT-29, HT29 cell line, read-out: Colorectal cancer, EC50 (μM) HT29
[45] = SW-620, SW620 cell line, read-out: Colorectal cancer, EC50 (μM) SW620
[46] = DLD-1 cell line, read-out: Colorectal cancer, EC50 (μM) DLD-1
[47] = SW48 cell line, read-out: Colorectal cancer, EC50 (μM) SW48
[48] = SW480 cell line, read-out: Colorectal cancer, EC50 (μM) SW480
[49] = SNU-398, SNU398 cell line, read-out: Liver cancer, EC50 SNU398
[50] = HEPG2 cell line, read-out: Liver cancer, EC50 HEPG2
[51] = PLC/PRF/5 cell line, read-out: Liver cancer, EC50 PLC/PRF/5
[52] = BXPC-3, BxPC3 cell line, read-out: Pancreatic cancer, EC50 BxPC3
[53] = CAPAN-1, Capan1 cell line, read-out: Pancreatic cancer, EC50 Capan1
[54] = Capan-2, Capan2 cell line, read-out: Pancreatic cancer, EC50 Capan2
[55] = MIA PaCa-2 cell line, read-out: Pancreatic cancer, EC50 MIA PaCa-2
[56] = PANC 05.04 cell line, read-out: Pancreatic cancer, EC50 PANC 05.04
[57] = PANC-1 cell line, read-out: Pancreatic cancer, EC50 PANC-1
[58] = UPAFII cell line, read-out: Pancreatic cancer, EC50 UPAFII

Cc1ncc(C(=O)Nc2cc3nc(-c4cnc(C)n4C)ccc3cn2)s1 [Compound 82] gave an EC50 [1] of 282 nM, an EC50 [2] of 148 nM and an EC50 [3] of 440 nM. It also gave an EC50 [4] of 277 nM, an EC50 [5] of 451 nM and an EC50 [6] of 154 nM. It also gave an EC50 [7] of 942 nM, an EC50 [8] of 462 nM and an EC50 [9] of 244 nM. It also gave an EC50 [10, 17] of 360 nM, an EC50 [10, 18] of 287 nM and an EC50 [10, 19] of 218 nM. For the same compound, the EC50 [10, 20] was 293 nM, the EC50 [10, 21] was 770 nM and the EC50 [11, 22] was 0.236 µM. It also gave an EC50 [11, 23] of 0.308 µM, an EC50 [11, 24] of 0.257 µM and an EC50 [11, 25] of 0.19 µM. The EC50 [12, 26] was 0.175 µM, the EC50 [12, 27] was 0.147 µM and the EC50 [12, 28] was 0.628 µM. The EC50 [12, 29] was 0.073 µM, the EC50 [13, 30] was 0.288 µM and the EC50 [13, 31] was 0.081 µM. For the same compound, the EC50 [13, 32] was 0.103 µM, the EC50 [13, 33] was 0.292 µM and the EC50 [13, 34] was 0.221 µM. The EC50 [13, 35] was 0.137 µM, the EC50 [13, 36] was 0.169 µM and the EC50 [13, 37] was 0.125 µM. The EC50 [13, 38] was 0.163 µM, the EC50 [13, 39] was 0.206 µM and the EC50 [13, 40] was 0.233 µM. It also gave an EC50 [13, 41] of 0.316 µM, an EC50 [13, 42] of 0.117 µM and an EC50 [14, 43] of 0.168 µM. The EC50 [14, 44] was 0.252 µM, the EC50 [14, 45] was 0.143 µM and the EC50 [14, 46] was 0.193 µM. The EC50 [14, 47] was 0.122 µM, the EC50 [14, 48] was 0.339 µM and the EC50 [15, 49] was 123 nM. The EC50 [15, 50] was 485 nM, the EC50 [15, 51] was 613 nM and the EC50 [16, 52] was 199 nM. It also gave an EC50 [16, 53] of 269 nM, an EC50 [16, 54] of 579 nM and an EC50 [16, 55] of 159 nM. The EC50 [16, 56] was 279 nM, the EC50 [16, 57] was 514 nM and the EC50 [16, 58] was 169 nM.

For O=C(Nc1ccc(OCCN2CCCC2)cc1)c1n[nH]cc1/C=C/c1cccnc1 [Compound 92], the EC50 [1] was 6830 nM, the EC50 [2] was 6040 nM and the EC50 [3] was over 10000 nM. The EC50 [4] was 5510 nM, the EC50 [5] was 867 nM and the EC50 [6] was 312 nM. It also gave an EC50 [7] of over 10000 nM, an EC50 [8] of over 10000 nM and an EC50 [9] of 8720 nM. For the same compound, the EC50 [10, 17] was over 10000 nM, the EC50 [10, 18] was over 10000 nM and the EC50 [10, 19] was 867 nM. The EC50 [10, 20] was 9150 nM, the EC50 [10, 21] was 5580 nM and the EC50 [11, 22] was 8.56 µM. It also gave an EC50 [11, 23] of over 10 µM, an EC50 [11, 24] of over 10 µM and an EC50 [11, 25] of 7.15 µM. For the same compound, the EC50 [12, 26] was 9.92 µM, the EC50 [12, 27] was 7.05 µM and the EC50 [12, 28] was over 10 µM. For the same compound, the EC50 [12, 29] was 8.42 µM, the EC50 [13, 30] was over 10 µM and the EC50 [13, 31] was 0.675 µM. For the same compound, the EC50 [13, 32] was 2.25 µM, the EC50 [13, 33] was 4.87 µM and the EC50 [13, 34] was 7.97 µM. For the same compound, the EC50 [13, 35] was 3.24 µM, the EC50 [13, 36] was 3.81 µM and the EC50 [13, 37] was 2.18 µM. For the same compound, the EC50 [13, 38] was 1.63 µM, the EC50 [13, 39] was 3.96 µM and the EC50 [13, 40] was 6.76 µM. For the same compound, the EC50 [13, 41] was 6.97 µM, the EC50 [13, 42] was 2.51 µM and the EC50 [14, 43] was 6.22 µM. It also gave an EC50 [14, 44] of over 10 µM, an EC50 [14, 45] of 5.35 µM and an EC50 [14, 46] of 2.53 µM. It also gave an EC50 [14, 47] of 1.87 µM, an EC50 [14, 48] of over 10 µM and an EC50 [15, 49] of 4920 nM. The EC50 [15, 50] was over 10000 nM, the EC50 [15, 51] was over 10000 nM and the EC50 [16, 52] was over 10000 nM. It also gave an EC50 [16, 53] of over 10000 nM, an EC50 [16, 54] of over 10000 nM and an EC50 [16, 55] of 5860 nM. For the same compound, the EC50 [16, 56] was over 10000 nM, the EC50 [16, 57] was over 10000 nM and the EC50 [16, 58] was over 10000 nM.

Reference: patent publication US20220062240A1, “METHODS OF TREATING CANCER USING A CLK INHIBITOR” (BioSplice Therapeutics, Inc., priority 2018, published 2022)
